Earlier results in patent US7994258B2, “Hyperbranched polymer having nitroxyl group” (Nissan Chemical Industries, Ltd., priority 2007, dated 2011).

Conditions: comparison value, measuring conditions not stated

## O=C([O-])CN(CCN(CC(=O)[O-])CC(=O)O)CCN(CC(=O)[O-])CC(=O)O.[Gd+3] [GdDTPA]
  relaxivity (r1) of comparator: 4.0 mM⁻¹ s⁻¹
